Here are results for one compound from patent US20080058211A1, “Method and Composition for the Modulation of Toxin Resistance in Plant Cells” (BOARD OF REGENTS, THE UNIVERSITY OF TEXAS SYSTEM, priority 2006, published 2008).

For assay [1], the system named is Arabidopsis pollen. As to the kind of experiment: in vitro pollen germination (Arabidopsis). The format is cell-based, Arabidopsis thaliana. Here is the method: Effects of Extracellular ATPγS and AMPαS on Pollen Germination. Arabidopsis pollen was germinated in pollen germination media (PGM) containing from about zero to about 400 μM ATPγS or AMPαS. […] The method of collection included vortexing flowers in PGM creating a homogenous suspension of pollen from tens to hundreds of flowers. This method caused the release of a small amount of ATP, 2-5 μM into the PGM (data not shown).
The nitric oxide signaling pathway mediates the inhibition of Arabidopsis pollen germination by ATPγS. To examine the downstream effectors involved in the inhibition of Arabidopsis pollen germination by ATPγS, different agonists and antagonists of the known nitric oxide signaling pathway were examined. […] Some of the nitric oxide signaling pathway agonists are water soluble while others are DMSO soluble.
Strains and Growth Conditions. For the experiments related to the nitric oxide-ATP signaling relationship, all Arabidopsis thaliana plants were ecotype Wassilewskija (WS), and Medicago truncatula plants were strain A17. All of the plants were grown in Metro-Mix 200 soil at 24° C. with constant light. In vitro Pollen Germination. Arabidopsis flowers in stage 12-14 (Smyth et al., 1990) or Medicago truncatula flowers in stage F3 (Firnhaber et al., 2005) were collected and vortexed for 1 min in pollen germination media (PGM) (0.01% boric acid, 1 mM MgSO4, 1 mM CaCl2, 1 mM Ca(NO3)2, 5 mM HEPES, 18% Sucrose pH 7.0). The supernatant containing the pollen was collected by pipet, and up to three rounds of vortexing of the same pollen could be pooled together. The pollen suspended in PGM was then added in 10-12 μL drops to 400 μL PGM+1% agar that had been spread as a thin film across a microscope slide. The slides and pollen were then placed into humidity chambers, petri dishes with water saturated kimwipes, and allowed to germinate at 26° C. overnight. Pictures of the germinated pollen were taken with a digital camera attached to a brightfield microscope at 40×. The digital images were scored for the percent of pollen germinated using the AlphaEase software from Alpha Innotech. Pollen with tubes that were shorter than the diameter of the pollen grain were not counted as germinated or non-germinated. The chemicals: ATPγS, AMPαS, N2, 2-O-dibutyrylguanosine 3′:5′-cyclic monophospohate (Dib cGMP), Sildenafil citrate (Viagra™, Pfizer), and 2-(N,N-Diethylamino)-diazenolate 2-oxide (NONOate) were added to the pollen/PGM suspension prior to adding the drops to the PGM+1% agar. The chemicals 1H-[1,2,4]Oxadiazolo[4,3,-a]quinoxalin-1-one (ODQ), N-[4-[1-(3-Aminopropyl)-2-hydroxy-2-nitrosohydrazino]butyl]-1,3-propanediamine (SNAP), and 3-isobutyl-1-methylxanthine (IBMX) were diluted in DMSO and added to the pollen/PGM suspension to a final concentration of DMSO of 0.1%.
For successful pollen germination it was critical for the plants to be healthy and growing in slightly dry soil. To achieve this, the plants were briefly watered 1-2 days before the experiment. As Johnson-Brousseau and McCormick note in their paper (Johnson-Brousseau and McCormick 2004), a solid base is necessary for best in vitro germination of Arabidopsis pollen. The pollen would not germinate in liquid PGM if not overlaid on a solid PGM+1% agar base, and the vortexing and deposition of the pollen/PGM suspension needed to take place in less than 30 minutes or germination rates dropped considerably.

Assay [2] has as its system Medicago truncatula pollen. As to the kind of experiment: in vitro pollen germination (Medicago). It is filed as cell-based. Here is the method:
To determine if the affects of ATPγS on pollen germination was specific to Arabidopsis or a more generalized phenomenon, Medicago truncatula was also examined.
Strains and Growth Conditions. For the experiments related to the nitric oxide-ATP signaling relationship, all Arabidopsis thaliana plants were ecotype Wassilewskija (WS), and Medicago truncatula plants were strain A17. All of the plants were grown in Metro-Mix 200 soil at 24° C. with constant light. In vitro Pollen Germination. Arabidopsis flowers in stage 12-14 (Smyth et al., 1990) or Medicago truncatula flowers in stage F3 (Firnhaber et al., 2005) were collected and vortexed for 1 min in pollen germination media (PGM) (0.01% boric acid, 1 mM MgSO4, 1 mM CaCl2, 1 mM Ca(NO3)2, 5 mM HEPES, 18% Sucrose pH 7.0). The supernatant containing the pollen was collected by pipet, and up to three rounds of vortexing of the same pollen could be pooled together. The pollen suspended in PGM was then added in 10-12 μL drops to 400 μL PGM+1% agar that had been spread as a thin film across a microscope slide. […] The digital images were scored for the percent of pollen germinated using the AlphaEase software from Alpha Innotech. Pollen with tubes that were shorter than the diameter of the pollen grain were not counted as germinated or non-germinated. […]

The test system of a further assay is Arabidopsis pollen tubes. As to the kind of experiment: pollen tube elongation. The format is cell-based, Arabidopsis thaliana. Particulars: about 0 to about 250 μM added after tubes had begun to grow. Here is the method:
Arabidopsis pollen tube elongation is inhibited by ATPγS. As vesicles fuse to deliver membranes to the tip of elongating pollen tubes, ATP is likely to be released. So ATPγS and AMPαS were investigated for their ability to affect pollen tube elongation. After pollen tubes had begun to grow, from about 0 to about 250 μM ATPγS or AMPαS were added and the subsequent growth rate was determined.
Blocking the nitric oxide signaling pathway reverses the inhibition of Arabidopsis elongation by ATPγS. The inhibition of Arabidopsis pollen tube elongation was also mediated via the NO signaling pathway. Pollen tube growth rates were measured in 0.5% DMSO with and without 100 μM ATPγS.
Measurements of pollen tube elongation. Pollen was germinated as described above except 10 μL drops of pollen/PGM suspension were added to 60 μL of PGM+1% agar that had been deposited into a concavity slide. The pollen was allowed to germinate for 1-2 h, so that pollen tubes were clearly visible. Then 90 μL of PGM or PGM containing ATPγS, AMPαS, DMSO or ODQ was added and a photo was taken using a brightfield microscope at 40×. The coordinates of each photo were noted, so that the exact pollen tubes could be photographed 50-60 minutes later. Using Image J, the pollen tube lengths for individual pollen tubes were measured and a growth rate of μm/min was determined.

In assay [3] the test system is nitric oxide levels in elongating Arabidopsis pollen tubes. As to the kind of experiment: nitric oxide in elongating pollen tubes, DAF-2D fluorescence. The format is cell-based, Arabidopsis thaliana. Particulars: 125 μM. Here is the method:
Increased extracellular ATPγS increases nitric oxide production in elongating pollen tubes. In addition to using agonists and antagonists to indirectly study the relationship of eATPγS and nitric oxide, direct measurements of increases in nitric oxide after application of ATPγS and AMPαS were examined. Pollen grains have a high level of auto-fluorescence and the nitric oxide levels in elongating Arabidopsis pollen tubes were determined using DAF-2D, a fluorescent marker for the presence of nitric oxide that was dissolved in DMSO. Elongating pollen tubes were treated with DAF-2D alone or with ATPγS or AMPαS.
Measurements of NO in growing pollen tubes treated with ATPγS or AMPαS. Pollen was germinated as described for the pollen elongation measurements. After 1-2 hours when pollen tubes were clearly visible, 90 μL of PGM containing 5 μM 4,5-diaminofluorescein diacetate (DAF-2D, Molecular Probes) with or without ATPγS or AMPαS was added. […] Using Image J, the average fluorescence for the pollen tubes on each slide and each time point were determined. Since background fluorescence for each slide varied, three areas where no pollen tubes were present were averaged and subtracted from the pollen tube averages for each slide. Pollen tubes with and without nucleotides were compared to each other at similar time points to determine if there was a difference in fluorescence.

Assay [4] relates to [Ca^2+]cyt in Arabidopsis seedlings. Particulars: Arabidopsis seedlings (Jeter et al., 2004); cited from earlier work.
For another assay, the system named is Δ[Ca^2+]cyt. Particulars: co-application with OGA; cited from earlier work.
A further assay deals with roots. The note with it: in vivo; cited from earlier work.
For assay [5], the system named is Arabidopsis pollen. The note with it: wild-type pollen; μM levels; cited from earlier work.

As for `Nc1ncnc2c1ncn2[C@@H]1O[C@H](COP(=O)(O)OP(=O)(O)OP(O)(O)=S)[C@@H](O)[C@H]1O` [ATPγS], the “inhibition of pollen germination” value is reported as “inhibits” in the assay on Arabidopsis pollen [1] (50 μM, 0.1% DMSO); “not inhibitory” in the assay on Arabidopsis pollen [1] (50 μM, series with water-soluble agonists); “does not inhibit” in the assay with Arabidopsis pollen [1] (100 μM, 0.1% DMSO); “inhibitory” with Arabidopsis pollen [1] (100 μM, series with water-soluble agonists). The “concentration from which the pollen germination rate significantly decreased” value in the assay with Arabidopsis pollen [1] (PGM with about zero to about 400 μM) is given as “about 100 μM”. In addition, the “concentrations required for the responses of pollen” value in the assay on Arabidopsis pollen [1] (pollen germination and growth) was 100 to 200 µM. In assay [2], the “concentration from which pollen germination rates decrease” value stood at 200 µM. Further, the “concentration that significantly inhibited pollen tube elongation” value in the assay with Arabidopsis pollen tubes is given as “more than 150 μM”. Besides, the DAF-2D fluorescence result in assay [3] was “significantly increased”. Further, the “concentrations needed to induce increases in [Ca2+]cyt” value in assay [4] was 100 to 200 µM. The “effect on Δ[Ca2+]cyt together with OGA” value with Δ[Ca^2+]cyt was “mutually enhanced”. Besides, the “concentration that could inhibit the straight growth of roots” value in the assay on roots is listed as 0.3 mM. For the same compound, the pollen germination entry in the assay with Arabidopsis pollen [5] was “inhibits pollen germination”.
